# Counter-ions that a name gives are not always drawn. Like-named read-outs stand apart in the source and are kept apart here.
# What was measured:
# [1] = target: T1, human serotonin transporters (Homo sapiens, UniProt P31645); test: Serotonin Transporter Binding Assay; details: HEK-hSERT cell membranes, 1 nM [3H]-citalopram, Cheng and Prusoff
# T1 construct: expressed in transfected cells; host or cells: HEK-293 (HEK-hSERT), membrane homogenates
# Method: HEK-293 cells that stably express human serotonin transporters (HEK-hSERT cells) were grown at 37° C. in 5% CO2 as a monolayer in medium consisting of EMEM supplemented with 10% fetal bovine serum and G418 sulfate (500 μg/ml). To prepare membranes for radioligand binding experiments, cells were rinsed twice with phosphate-buffered saline (138 mM NaCl, 4.1 mM KCl, 5.1 mM Na2PO4, 1.5 mM […], 11.1 mM glucose, pH 7.4). Cells were transferred from plates to polypropylene tubes (16×100 mm), centrifuged at 1,200×g for 5 min and were frozen at −80° C. until assay. Following centrifugation, pellets were resuspended by homogenization in buffer consisting of 50 mM Tris (pH 7.7 at 25° C.), 120 mM NaCl and 5 mM KCl and then centrifuged at 32,000×g for 10 min. Following centrifugation, supernatants were discarded and pellets were resuspended in buffer consisting of 50 mM Tris (pH 7.4 at 25° C.), 150 mM NaCl and 5 mM KCl. Membrane homogenates (200 μl/plate) were incubated with 1 nM [^3H]-citalopram (specific activity=85 Ci/mmol) and increasing concentrations of test compounds for 1 hr at 25° C. in a total volume of 250 μl. The assay buffer consisted of 50 mM Tris (pH 7.4 at 25° C.), 120 mM NaCl and 5 mM KCl (pH 7.4 with conc. HCl). Plates were incubated for 1 hr at 25° C., then filtered through 0.5% PEI treated Whatman GF/B filters using a Brandel cell harvester. Filters were washed three times with 3 ml of ice-cold tris wash buffer. Non-specific binding was defined with 10 μM fluoxetine. Amount of radioligand bound in the presence and absence of competitor was analyzed by plotting (−)log drug concentration versus the amount of radioligand specifically bound. The midpoint of the displacement curve (IC50, nM), signifies the potency. Ki values were calculated using the method of Cheng and Prusoff (1973).
# [2] = target: T2, recombinant human dopamine D2L receptors (Homo sapiens, UniProt P14416); test: Dopamine Binding Assay; details: HEK-D2L cell membranes, 150 pM [3H]-spiperone, Cheng and Prusoff
# T2 construct: expressed in transfected cells; host or cells: HEK-293 (HEK-D2L), membrane homogenates
# Method: HEK-293 cells that stably express recombinant human dopamine D2L receptors (HEK-D2L cells) were grown at 37° C. in 5% CO2 as a monolayer in medium consisting of EMEM supplemented with 10% fetal bovine serum and G418 sulfate (500 μg/ml). To prepare membranes for radioligand binding experiments, cells were rinsed twice with phosphate-buffered saline (138 mM NaCl, 4.1 mM KCl, 5.1 mM Na2PO4, 1.5 mM KH2PO2 11.1 mM glucose, pH 7.4), and incubated for 5-10 min. at 4° C. in hypotonic lysis buffer consisting of 10 mM Tris (pH 7.4) and 5 mM EDTA. Cells were transferred from plates to polypropylene tubes (16×100 mm), homogenized and centrifuged at 32,000×g for 20 min. Following centrifugation, pellets were resuspended by homogenization in buffer consisting of 50 mM Tris (pH 7.7 at 25° C.) and 1 mM EDTA. Homogenates were stored at −80° C. until needed. On the day of an experiment, homogenates were thawed then centrifuged at 32,000×g for 20 min. Following centrifugation, supernatants were discarded and pellets were resuspended in assay buffer consisting of 50 mM Tris (pH 7.4 at 25° C.), 1 mM EDTA and 6 mM MgCl2. Membrane homogenates (˜5 μg) were incubated with 150 pM [^3H]-spiperone (Amersham Life Science) and increasing concentrations of test compounds for 1.5 hr at 22° C. in a total volume of 400 μl. Reactions were stopped by addition of ice-cold assay buffer and filtration over glass fiber filters (Whatman GFB, pre-soaked in 0.05% polyethylenimine) using a microtitre format Brandel cell harvester. Filters were washed with 3 ml of ice-cold assay buffer. Non-specific binding was defined with 2 μM (+)butaclamol. Ki values were calculated using the method of Cheng and Prusoff (1973). Protein concentrations were determined by the method of Bradford (1976) with BSA as a standard.
# T2 sequence (P14416 whole entry): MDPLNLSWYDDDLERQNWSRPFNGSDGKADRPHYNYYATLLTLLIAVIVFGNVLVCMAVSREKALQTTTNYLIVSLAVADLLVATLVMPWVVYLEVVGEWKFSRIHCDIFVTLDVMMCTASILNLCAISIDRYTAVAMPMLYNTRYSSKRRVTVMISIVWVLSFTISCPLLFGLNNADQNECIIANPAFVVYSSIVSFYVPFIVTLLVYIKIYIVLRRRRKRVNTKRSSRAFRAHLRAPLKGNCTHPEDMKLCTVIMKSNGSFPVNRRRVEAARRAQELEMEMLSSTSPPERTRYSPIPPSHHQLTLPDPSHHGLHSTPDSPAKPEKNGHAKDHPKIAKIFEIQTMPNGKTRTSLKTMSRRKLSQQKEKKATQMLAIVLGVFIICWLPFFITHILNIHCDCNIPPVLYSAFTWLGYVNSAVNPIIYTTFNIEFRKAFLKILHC
# T1 sequence (P31645 whole entry): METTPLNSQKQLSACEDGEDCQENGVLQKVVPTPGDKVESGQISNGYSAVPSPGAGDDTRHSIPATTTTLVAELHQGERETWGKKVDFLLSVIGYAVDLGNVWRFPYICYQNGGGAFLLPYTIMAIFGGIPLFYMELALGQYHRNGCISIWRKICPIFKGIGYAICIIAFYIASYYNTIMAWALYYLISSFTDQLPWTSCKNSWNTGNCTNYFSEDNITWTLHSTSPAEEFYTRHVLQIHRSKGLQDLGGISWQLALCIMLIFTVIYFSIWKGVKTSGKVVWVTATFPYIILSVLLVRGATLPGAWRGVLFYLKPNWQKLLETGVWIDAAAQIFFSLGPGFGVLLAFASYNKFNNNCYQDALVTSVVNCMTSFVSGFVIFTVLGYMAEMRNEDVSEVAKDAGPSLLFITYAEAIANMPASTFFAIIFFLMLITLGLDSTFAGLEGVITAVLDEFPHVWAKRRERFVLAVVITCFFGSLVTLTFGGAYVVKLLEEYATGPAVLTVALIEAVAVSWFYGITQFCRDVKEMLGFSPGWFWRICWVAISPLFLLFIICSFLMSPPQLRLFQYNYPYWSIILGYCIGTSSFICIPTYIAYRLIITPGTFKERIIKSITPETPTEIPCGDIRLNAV
SMILES,Ki ([1]; read-out: SERT Ki) [nM],Ki [2] [nM],Ki ([1]; SERT Ki (nM)) [nM]
"CNCC1CC1c1c[nH]c2ccc(C#N)cc12 (racemic) [Example 119, trans-2-[5-Cyanoindol-3-yl]-1-(N-methylaminomethyl)cyclopropane]",1 to 10,100 to 1000,–
"CC(C1CC1c1c[nH]c2ccc(C#N)cc12)N(C)C (racemic) [Example 121, trans-3-[2-(1-Dimethylamino-ethyl)-cyclopropyl]-1H-indole-5-carbonitrile]",–,> 1000,< 1
"CCN(CC)C(C)C1CC1c1c[nH]c2ccc(C#N)cc12 (racemic) [Example 123, trans-3-[2-(1-Diethylamino-ethyl)-cyclopropyl]-1H-indole-5-carbonitrile]",–,> 1000,10 to 100
"CNC(C)C1CC1c1c[nH]c2ccc(C#N)cc12 (racemic) [Example 125, trans-3-[2-(1-Methylamino-ethyl)-cyclopropyl]-1H-indole-5-carbonitrile]",1 to 10,100 to 1000,–
"CCNC(C)C1CC1c1c[nH]c2ccc(C#N)cc12 (racemic) [Example 126, trans-3-[2-(1-Ethylamino-ethyl)-cyclopropyl]-1H-indole-5-carbonitrile]",10 to 100,100 to 1000,–
"CNC[C@H]1C[C@@H]1c1c[nH]c2ccc(C(F)(F)F)cc12 (racemic) [Example 154, Methyl-[2-(5-trifluoromethyl-1H-indol-3-yl)-cyclopropylmethyl]-amine]",10 to 100,–,–
"CNC[C@H]1C[C@@H]1c1c[nH]c2cc(C(F)(F)F)ccc12 (racemic) [Example 155, Methyl-[2-(6-trifluoromethyl-1H-indol-3-yl)-cyclopropylmethyl]-amine]",–,> 1000,10 to 100
"CCNC[C@H]1C[C@@H]1c1c[nH]c2cc(C(F)(F)F)ccc12 (racemic) [Example 156, Ethyl-[2-(6-trifluoromethyl-1H-indol-3-yl)-cyclopropylmethyl]-amine]",100 to 1000,–,–
"CN(Cc1ccccc1)C[C@H]1C[C@@H]1c1c[nH]c2cc(C(F)(F)F)ccc12 (racemic) [Example 157, Benzyl-methyl-[2-(6-trifluoromethyl-1H-indol-3-yl)-cyclopropylmethyl]-amine]",100 to 1000,–,–
"CNC[C@H]1C[C@@H]1c1c[nH]c2cc(C#N)ccc12 (racemic) [Example 158, 3-(2-Methylaminomethyl-cyclopropyl)-1H-indole-6-carbonitrile]",–,> 1000,10 to 100
"CCNC[C@H]1C[C@@H]1c1c[nH]c2cc(C#N)ccc12 (racemic) [Example 159, 3-(2-Ethylaminomethyl-cyclopropyl)-1H-indole-6-carbonitrile]",100 to 1000,–,–
"CCN(CC)C[C@H]1C[C@@H]1c1c[nH]c2cc(C#N)ccc12 (racemic) [Example 160, 3-(2-Diethylaminomethyl-cyclopropyl)-1H-indole-6-carbonitrile]",–,> 1000,10 to 100
"CCN(C)C[C@H]1C[C@@H]1c1c[nH]c2cc(C#N)ccc12 (racemic) [Example 161, 3-{2-[(Ethyl-methyl-amino)-methyl]-cyclopropyl}-1H-indole-6-carbonitrile]",100 to 1000,–,–
"CN(Cc1ccccc1)C[C@H]1C[C@@H]1c1c[nH]c2cc(C#N)ccc12 (racemic) [Example 162, 3-{2-[(Benzyl-methyl-amino)-methyl]-cyclopropyl}-1H-indole-6-carbonitrile]",10 to 100,100 to 1000,–
"CN(Cc1ccccc1)C[C@@H]1C[C@H]1c1c[nH]c2ccc(C#N)cc12 (relative stereo) [Example 3, Trans-2-[5-Cyanoindol-3-yl]-1-[N,N-methyl-benzylaminomethyl]-cyclopropane]",< 1,100 to 1000,–
"N#Cc1ccc2[nH]cc([C@@H]3C[C@H]3CNCc3ccccc3)c2c1 (relative stereo) [Example 7, trans-1-(N-Benzlyaminomethyl)-2-[5-cyanoindol-3-yl]-cyclopropane]",1 to 10,100 to 1000,–
"CN(C)CC1CC1c1csc2ccccc12 (single isomer, unassigned; (-)) [Example 190A, (−)-(2-Benzo[b]thiophen-3-yl-cyclopropylmethyl)-dimethyl-amine]",100 to 1000,–,–

SMILES,Ki ([1]; read-out: SERT Ki) [nM],Ki [2] [nM],Ki ([1]; SERT Ki (nM)) [nM]
"CN(C)CC1CC1c1ccc2[nH]cc(Br)c2c1 (centres unmarked) [Example 150, N,N-dimethyl-2-(3-bromoindol-5-yl)cycloprop-1-yl methylamine]",10 to 100,–,–
"CN(C)CC1CC1c1ccc2[nH]cc(C#N)c2c1 (centres unmarked) [Example 151, 5-(2-Dimethylaminomethyl-cyclopropyl)-1H-indole-3-carbonitrile]",1 to 10,–,–
"CCN(C)CC1CC1c1n[nH]c2ccc(C#N)cc12 (centres unmarked) [Example 164, 3-{2-[(Ethyl-methyl-amino)-methyl]-cyclopropyl}-1H-indazole-5-carbonitrile]",100 to 1000,–,–
"CCN(CC)CC1CC1c1n[nH]c2ccc(C#N)cc12 (centres unmarked) [Example 165, 3-(2-Diethylaminomethyl-cyclopropyl)-1H-indazole-5-carbonitrile]",100 to 1000,–,–
"N#Cc1ccc2[nH]nc(C3CC3CN3CCCC3)c2c1 (centres unmarked) [Example 166, 3-(2-Pyrrolidin-1-ylmethyl-cyclopropyl)-1H-indazole-5-carbonitrile]",100 to 1000,–,–
"CNCC1CC1c1csc2ccccc12 (centres unmarked) [Example 168, (2-Benzo[b]thiophen-3-yl-cyclopropylmethyl)-methyl-amine]",10 to 100,–,–
"CCN(C)CC1CC1c1csc2ccccc12 (centres unmarked) [Example 170, (2-Benzo[b]thiophen-3-yl-cyclopropylmethyl)-ethyl-methyl-amine]",100 to 1000,–,–
"CCN(CC)CC1CC1c1csc2ccccc12 (centres unmarked) [Example 171, (2-Benzo[b]thiophen-3-yl-cyclopropylmethyl)-diethyl-amine]",100 to 1000,–,–
"c1ccc2c(C3CC3CN3CCCC3)csc2c1 (centres unmarked) [Example 172, 1-(2-Benzo[b]thiophen-3-yl-cyclopropylmethyl)-pyrrolidine]",100 to 1000,–,–
"CCN(CC)CCCC1CC1c1c[nH]c2ccc(C#N)cc12 (stereo not drawn) [Example 177, Trans-2-[5-cyanoindol-3-yl]1-(3-(N,N-diethylamino)propyl)cyclopropane]",10 to 100,–,–
"C[N+](C)(C)C[C@H]1C[C@@H]1c1c[nH]c2ccc(C#N)cc12 [Example 187, S,S-Trans-2-[5-Cyanoindol-3-yl]-1-(trimethylammoniummethyl)cyclopropane trifluoroacetate]",< 1,–,–
CN(C)C[C@H]1C[C@@H]1c1cn(C)c2ccc(C#N)cc12 [Example 188],1 to 10,–,–
CCn1cc([C@H]2C[C@@H]2CN(C)C)c2cc(C#N)ccc21 [Example 189],1 to 10,–,–
"CN(C)CC1CC1c1ccc2cc[nH]c2c1 (centres unmarked) [Example 191, [2-(1H-Indol-6-yl)-cyclopropylmethyl]-dimethyl-amine]",10 to 100,–,–
"CN(C)CC1CC1c1ccc2c(C#N)c[nH]c2c1 (centres unmarked) [Example 192, 6-(2-Dimethylaminomethyl-cyclopropyl)-1H-indole-3-carbonitrile]",1 to 10,–,–
"CN(C)CCC1CC1c1c[nH]c2ccc(C#N)cc12 (centres unmarked) [Example 193, 3-[2-(2-Dimethylamino-ethyl)-cyclopropyl]-1H-indole-5-carbonitrile]",1 to 10,–,–

# From patent US6822100B2 (Bristol-Myers Squibb Company, priority 2001, dated 2004)
